How the values were obtained:
[1] = tested on: BT+AG+ hPGCLC (d6 hPGCLCs from 585B1 BTAG hiPSC); assay: hPGCLC expansion culture on m220 feeders with combinations of chemical substances and cytokines; BT+AG+ cells counted by FACS; assay type: cell-based, human; conditions: 10 days of culture, GMEM, 15% KSR, 2.5% FBS, 100 ng/ml SCF, forskolin 10 μM, rolipram 10 μM, cyclosporin A 5 μM, LIF 10 ng/ml, EGF 50 ng/ml, bFGF 20 ng/ml
Procedure: FIG. 1B Exploration of conditions for expanding hPGCLC in vitro. (B) (Left) Scheme for exploration of conditions for BT^+AG^+ cell proliferation. (Right) Plot showing the number of BT^+AG^+ cells after 10 days of culture under the indicated conditions determined by FACS analysis. (Blue) Combination of chemical substances [forskolin (10 μM), rolipram (10 μM), and cyclosporin A (5 μM)] used for BT^+AG^+ cell proliferation. (Yellow) Combination of cytokines [LIF (10 ng/ml), EGF (50 ng/ml), and basic fibroblast growth factor (bFGF: 20 ng/ml)] used for BT^+AG^+ cell proliferation. About 5000 hPGCLCs were used as the starting cell population. […] Conditions for mPGCLC expansion: green. Conditions without additional chemical substance/cytokine: gray.
In order to examine the influence of cytokine and/or chemical substances on hPGCLC proliferation, hPGCLC was treated with MMC in GK15 containing 2.5% FBS and 100 ng/mL SCF, and supplemented with cytokine and/or chemical substances [10 ng/mL LIF; 50 ng/mL EGF; 20 ng/mL bFGF; 10 μM forskolin; 10 μM rolipram; 5 μM cyclosporin A (SIGMA, 30024)], and the cells were passaged every 10 days [see the section of Fluorescence activated cell sorting]. On the day of passage, about 5.0×10^3 cells were plated on 24-well plates (0.5 mL of medium containing 10 μM Y27632), and 0.5 mL of medium free of Y27632 was 0.5 mL added the next day. […]

[2] = tested on: 585B1-868BTAG iPSC-derived PGCLCs; assay: hPGCLC maintenance and expansion culture with added Wnt signal transduction inhibitors; growth curve and enrichment score by FACS; assay type: cell-based, human; conditions: control DMSO
Excerpt: FIG. 14A A drawing showing the suppressive effect of Wnt signal transduction inhibitor on PGCLC dedifferentiation. […] Growth curve of BTAG double-positive cells under each condition in 30 day culture (n=3). The average values of the three experiments were plotted and connected with a straight line. The number after the lowercase letter “c” indicates the number of days of culture.
FIG. 14B A drawing showing the suppressive effect of Wnt signal transduction inhibitor on PGCLC dedifferentiation. […] Enrichment score (n=3) under each condition at C10, C20 and C30. The average values were plotted with red diamonds. Using the DMSO-added group as a control group, a multiple comparison test was performed by Dunnet method. *:p<0.1, **:p<0.05 […]
Further detailed analysis of the FACS analysis results of 585B1-868BTAG (BLIMP1-tdTomato and AP2γ-EGFP) iPS cell-derived proliferated human PGCLC was performed. In the FACS analysis, the expression of the human cell-specific cell surface antigen TRA-1-85 in the population excluding dead cells by DRAQ7 staining was analyzed. […]
Proliferation culture was performed using 585B1-868BTAG iPSC-derived PGCLCs on day 6 of differentiation induction. […] Cells were passaged and counted by FACS every 10 days to draw a proliferation curve. In addition, an enrichment score was calculated at respective culture day numbers.

Compound	effect on expansion of the number of BT+AG+ cells [1]	appearance of dedifferentiated cells (enrichment score) ([2]; c10, c20, c30, IWR1 at various concentrations, inhibitor comparison at 2.5 μM)	effect on hPGCLC proliferation (growth curve of BTAG double-positive cells) ([2]; various concentrations added to maintenance and expansion medium, 30 days of culture, n=3)
FGF: basic fibroblast growth factor, 20 ng/ml	positive effect		
O=C(Nc1cccc2cccnc12)c1ccc(N2C(=O)[C@@H]3[C@H](C2=O)[C@@H]2C=C[C@H]3C2)cc1 [IWR1]		significantly suppressed	no effect
